Assay results as given in patent publication US20110274679A1, “Compositions and Methods of SIRT Activation” (VDF FutureCeuticals, Inc., priority 2008, published 2011).

Test system: SIRT
Test: in vitro SIRT activity in treated cells, lysed after treatment (BioMol SIRT Activity Assay kit)
Type: cell-based
Settings: depending on the cell line; positive control
From the text: Among other suitable combinations, one exemplary SIRT activating combination of B-vitamins was formulated that included a combination of vitamin B2, B1, B3, B6, B12, and B5. Using that combination, HeLa cells were separately treated in vitro for 4 hrs, along with a reference compound (here: resveratrol) as positive control, as well as individually with the respective above vitamins at a total concentrations of 0.1% (wt/vol) of culture medium. To measure SIRT activation, the cells were lysed after treatment and SIRT activity was determined using a commercially available SIRT Activity Assay kit (BioMol, Inc.; Catalog #KI-104).
Moreover, in vitro activation with the known SIRT activator resveratrol was, depending on the cell line, between about 15-120% of untreated control, making the SIRT activation with the vitamin compounds even more remarkable.
In an experiment similar to that above, FIG. 2 depicts further combinations for selected vitamin B compounds in which the columns show the results for A (Riboflavin, vitamin B2), B (Thiamine, vitamin B1), C (Niacinamide, vitamin B3), D (Pyridoxine, vitamin B6), E (Cyanocobolamin, vitamin B12), F (Ca-Panthotenate, vitamin B5), G=Blend of A-F (VSIRT), H (Pyrodoxine, vitamin B6 plus Cobalamin, vitamin B12), 0.05% each, and I (H plus Riboflavin, vitamin B2) (0.033% each). […]

With `Oc1ccc(C=Cc2cc(O)cc(O)c2)cc1` [resveratrol] the “in vitro activation of SIRT” value was 15-120 % of untreated control.
